# Laboratory results: ChEMBL document CHEMBL5532697, “Imidazopyrimidine: from a relatively exotic scaffold to an evolving structural motif in drug discovery” (RSC Med Chem, 2024)
# pEC50, pIC50: −log10 of the molar value.
# Legend:
# A549 [1] = experiment: Antiproliferative activity against human A549 cells assessed as inhibition of cell growth by MTT assay; assay type: functional, cell-based
# Aorta = experiment: Vasorelaxant activity in rabbit aorta assessed as inhibition of phenylephrine-induced contraction; assay type: functional, tissue-based; conditions: Oryctolagus cuniculus
# Cryptococcus neoformans = experiment: Antifungal activity against Cryptococcus neoformans NCPF 250316 assessed as inhibition of fungal growth incubated for 48 hrs; assay type: functional
# Kluyveromyces marxianus [2] = experiment: Antifungal activity against Candida keyfer […] 410004 assessed as inhibition of fungal growth incubated for 48 hrs; assay type: functional
# Aspergillus niger = experiment: Antifungal activity against Aspergillus niger assessed as inhibition of fungal growth incubated for 48 hrs; assay type: functional
# Candida albicans [3] = experiment: Antifungal activity against Candida albicans NCPF 400034 assessed as inhibition of fungal growth incubated for 48 hrs; assay type: functional
# Neurospora crassa = experiment: Antifungal activity against Neurospora crassa assessed as inhibition of fungal growth incubated for 48 hrs; assay type: functional
# MCF7 = experiment: Antiproliferative activity against human MCF7 cells assessed as inhibition of cell growth incubated for 48 hrs by alamarblue staining based assay; assay type: functional; conditions: MCF7, 48 h
# Pyruvate kinase PKM = Pyruvate kinase PKM (Homo sapiens, UniProt P14618); experiment: Inhibition of recombinant PKM2 (unknown origin)
# A549 [4] = experiment: Antiproliferative activity against human A549 cells assessed as inhibition of cell growth incubated for 48 hrs by alamarblue staining based assay; assay type: functional; conditions: A549, 48 h
# COLO 205 = experiment: Antiproliferative activity against human COLO 205 cells assessed as inhibition of cell growth incubated for 48 hrs by alamarblue staining based assay; assay type: functional; conditions: COLO 205, 48 h
# [5] = target: cAMP and cAMP-inhibited cGMP 3',5'-cyclic phosphodiesterase 10A (Homo sapiens, UniProt Q9Y233); experiment: Inhibition of full length human PDE10A incubated for 1 hr by topcount Scintillation plate reader analysis
# Kluyveromyces marxianus [6] = experiment: Antifungal activity against Candida kefyr assessed as reduction in fungal growth incubated for 24 hrs by CLSI based assay; assay type: functional
# Pichia kudriavzevii = experiment: Antifungal activity against Candida krusei ATCC 6358 assessed as reduction in fungal growth incubated for 24 hrs by CLSI based assay; assay type: functional
# Candida dubliniensis = experiment: Antifungal activity against Candida dubliniensis CD36 assessed as reduction in fungal growth incubated for 24 hrs by CLSI based assay; assay type: functional
# Candida albicans [7] = experiment: Antifungal activity against Candida albicans ATCC 10231 assessed as reduction in fungal growth incubated for 24 hrs by CLSI based assay; assay type: functional
# [8] = tested on: Meyerozyma guilliermondii; experiment: Antifungal activity against Meyerozyma guilliermondii assessed as reduction in fungal growth incubated for 24 hrs by CLSI based assay; assay type: functional
# Nakaseomyces glabratus = experiment: Antifungal activity against Candida glabrata CBS138 assessed as reduction in fungal growth incubated for 24 hrs by CLSI based assay; assay type: functional
# Candida tropicalis = experiment: Antifungal activity against Candida tropicalis MYA-3404 assessed as reduction in fungal growth incubated for 24 hrs by CLSI based assay; assay type: functional
# Kluyveromyces marxianus [9] = experiment: Synergetic antifungal activity against Candida keyfer […] 410004 assessed as fractional inhibitory concentration index incubated for 24 hrs in the presence of amphotericin B by checkerboard microdilution method; assay type: functional
# Albumin = Albumin (Homo sapiens, UniProt P02768); experiment: Inhibition of Albumin (unknown origin) denaturation at 100 uM relative to control
# [10] = Cytotoxicity against human HFF cells assessed as cell growth inhibition by celltiter-glo assay; assay type: toxicity, cell-based
# BK polyomavirus = experiment: Antiviral activity against BK polyomavirus MM infected in human HFF cells assessed as reduction in viral growth incubated for 7 days; assay type: functional, organism-based; conditions: Betapolyomavirus hominis, 168 h
# CCRF-CEM = experiment: Antiproliferative activity against human CCRF-CEM cells assessed as inhibition of cell growth incubated for 72 hrs by MTT assay; assay type: functional, cell-based
# CEM-DNR = experiment: Antiproliferative activity against human CEM-DNR cells assessed as inhibition of cell growth incubated for 72 hrs by MTT assay; assay type: functional, cell-based
# A549 [11] = experiment: Antiproliferative activity against human A549 cells assessed as inhibition of cell growth incubated for 72 hrs by MTT assay; assay type: functional, cell-based; conditions: A549, 72 h
# K562 = experiment: Antiproliferative activity against human K562 cells assessed as inhibition of cell growth incubated for 72 hrs by MTT assay; assay type: functional, cell-based; conditions: K562, 72 h
# Chain of Pyruvate kinase PKM (P14618 whole entry): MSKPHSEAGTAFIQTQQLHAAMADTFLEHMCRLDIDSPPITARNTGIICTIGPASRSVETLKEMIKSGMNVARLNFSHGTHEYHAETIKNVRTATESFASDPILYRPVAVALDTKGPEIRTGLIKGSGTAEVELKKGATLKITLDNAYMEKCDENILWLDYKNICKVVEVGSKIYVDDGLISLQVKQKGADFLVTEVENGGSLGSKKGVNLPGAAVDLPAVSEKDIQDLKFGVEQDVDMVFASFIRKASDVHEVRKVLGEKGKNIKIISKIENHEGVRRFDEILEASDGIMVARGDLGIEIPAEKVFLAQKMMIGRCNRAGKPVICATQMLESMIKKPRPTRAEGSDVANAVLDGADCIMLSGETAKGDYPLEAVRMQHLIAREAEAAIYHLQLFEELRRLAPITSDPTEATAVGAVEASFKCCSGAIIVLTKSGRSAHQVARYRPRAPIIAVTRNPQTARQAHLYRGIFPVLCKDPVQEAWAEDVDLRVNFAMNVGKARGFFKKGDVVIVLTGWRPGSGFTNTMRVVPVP
# Chain of Albumin (P02768 whole entry): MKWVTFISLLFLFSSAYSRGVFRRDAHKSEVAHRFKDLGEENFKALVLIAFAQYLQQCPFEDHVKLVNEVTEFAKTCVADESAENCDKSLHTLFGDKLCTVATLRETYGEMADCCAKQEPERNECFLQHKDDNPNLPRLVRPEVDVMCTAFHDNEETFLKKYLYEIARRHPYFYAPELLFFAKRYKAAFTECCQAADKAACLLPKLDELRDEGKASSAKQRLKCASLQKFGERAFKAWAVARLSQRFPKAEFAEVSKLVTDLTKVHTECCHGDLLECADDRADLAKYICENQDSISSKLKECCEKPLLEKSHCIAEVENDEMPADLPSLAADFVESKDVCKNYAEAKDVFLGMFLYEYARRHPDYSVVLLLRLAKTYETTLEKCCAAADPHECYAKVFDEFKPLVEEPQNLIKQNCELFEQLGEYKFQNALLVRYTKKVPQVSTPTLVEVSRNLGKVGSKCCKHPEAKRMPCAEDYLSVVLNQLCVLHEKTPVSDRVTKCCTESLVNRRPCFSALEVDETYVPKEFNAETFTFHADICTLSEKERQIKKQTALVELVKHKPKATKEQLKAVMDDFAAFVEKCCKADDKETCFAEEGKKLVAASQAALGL
# Chain of cAMP and cAMP-inhibited cGMP 3',5'-cyclic phosphodiesterase 10A (Q9Y233 whole entry): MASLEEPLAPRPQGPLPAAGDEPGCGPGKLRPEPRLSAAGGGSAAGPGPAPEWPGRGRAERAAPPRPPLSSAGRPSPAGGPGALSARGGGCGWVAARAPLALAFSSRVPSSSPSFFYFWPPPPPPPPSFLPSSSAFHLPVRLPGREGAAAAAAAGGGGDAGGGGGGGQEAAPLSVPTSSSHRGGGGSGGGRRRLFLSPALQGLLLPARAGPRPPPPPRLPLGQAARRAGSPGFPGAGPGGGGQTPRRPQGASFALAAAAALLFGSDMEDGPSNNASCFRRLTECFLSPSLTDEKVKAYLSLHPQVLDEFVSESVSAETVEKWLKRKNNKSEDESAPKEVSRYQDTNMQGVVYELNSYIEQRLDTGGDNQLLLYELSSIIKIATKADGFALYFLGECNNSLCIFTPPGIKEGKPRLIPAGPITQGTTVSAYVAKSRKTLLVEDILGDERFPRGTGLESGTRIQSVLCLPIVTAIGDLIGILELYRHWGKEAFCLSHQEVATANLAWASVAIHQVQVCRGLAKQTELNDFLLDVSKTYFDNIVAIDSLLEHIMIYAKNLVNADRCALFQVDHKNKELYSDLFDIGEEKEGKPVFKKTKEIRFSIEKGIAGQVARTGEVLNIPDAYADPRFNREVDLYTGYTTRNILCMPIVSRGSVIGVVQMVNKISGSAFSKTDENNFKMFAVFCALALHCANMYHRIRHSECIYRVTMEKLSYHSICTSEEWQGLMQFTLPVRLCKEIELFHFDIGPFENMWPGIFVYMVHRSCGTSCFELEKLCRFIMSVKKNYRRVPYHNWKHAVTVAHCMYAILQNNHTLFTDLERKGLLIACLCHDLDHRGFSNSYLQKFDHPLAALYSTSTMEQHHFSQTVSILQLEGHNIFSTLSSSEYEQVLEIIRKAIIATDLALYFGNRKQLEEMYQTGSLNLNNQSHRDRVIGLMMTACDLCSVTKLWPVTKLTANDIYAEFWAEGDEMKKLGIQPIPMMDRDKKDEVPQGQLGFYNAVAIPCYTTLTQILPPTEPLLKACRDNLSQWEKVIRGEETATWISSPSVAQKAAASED
smiles,measurement,setting,value
CC(=O)NC1(Cc2ccc(Br)cc2)C(=O)N=C2N=CC=CN21 (stereo unspecified),pIC50,A549 [1],5.68
CC(=O)NC1(Cc2c[nH]c3ccc(Br)cc23)C(=O)N=C2N=CC=CN21 (stereo unspecified),pIC50,A549 [1],5.85
Nc1nc(N)nc(-c2nc(Cc3ccccc3F)c3ncccn23)n1,pIC50,Aorta,6.67
Cc1ccc([Se]Cc2cn3cccnc3n2)cc1,MIC,Cryptococcus neoformans,> 36 µg/mL
same,MIC,Kluyveromyces marxianus [2],18.9 µg/mL
same,MIC,Aspergillus niger,> 37.8 µg/mL
same,MIC,Candida albicans [3],> 37.8 µg/mL
same,MIC,Neurospora crassa,18.9 µg/mL
N#Cc1ccccc1N1CCN(CC(=O)c2cnc3ncccn23)CC1,pIC50,MCF7,4.96
same,pIC50,Pyruvate kinase PKM,5.92
same,pIC50,A549 [4],4.55
same,pIC50,COLO 205,4.19
Cc1ccc(N2CCN(CC(=O)c3cnc4ncccn34)CC2)cc1,pIC50,MCF7,4.84
same,pIC50,Pyruvate kinase PKM,7.22
same,pIC50,A549 [4],4.57
same,pIC50,COLO 205,4.24
CC(=O)c1ccc(C(=O)N2CCN(CC(=O)c3cnc4ncccn34)CC2)cc1,pIC50,MCF7,4.93
same,pIC50,Pyruvate kinase PKM,6.14
same,pIC50,A549 [4],4.45
same,pIC50,COLO 205,3.98
Cc1c(C(=O)N2CC=CC2)cnn1C(=O)Nc1ccn2cc(-c3ccccc3)nc2n1,pIC50,[5],8.05
O=C(c1ccccc1)c1cnc2ncccn12,MIC,Kluyveromyces marxianus [6],0.125 µg/mL
same,MIC,Pichia kudriavzevii,0.5 µg/mL
same,MIC,Candida dubliniensis,0.062 µg/mL
same,MIC,Candida albicans [7],0.125 µg/mL
same,MIC,[8],0.062 µg/mL
same,MIC,Nakaseomyces glabratus,0.062 µg/mL
same,MIC,Candida tropicalis,0.5 µg/mL
CC(C)(C)c1nc(-c2cccc(NS(=O)(=O)c3c(F)cccc3F)c2F)c(-c2ccnc(N)n2)s1 [DABRAFENIB],pIC50,A549 [1],8.52
c1ccc([Se]Cc2cn3cccnc3n2)cc1,MIC,Cryptococcus neoformans,> 36 µg/mL
same,MIC,Kluyveromyces marxianus [2],> 36 µg/mL
same,MIC,Aspergillus niger,> 36 µg/mL
same,MIC,Candida albicans [3],36 µg/mL
same,fractional inhibitory concentration index (FICI),Kluyveromyces marxianus [9],3.6
same,MIC,Neurospora crassa,18 µg/mL
OC(Cn1cncn1)(Cn1cncn1)c1ccc(F)cc1F [FLUCONAZOLE],MIC,Kluyveromyces marxianus [6],1 µg/mL
same,MIC,Pichia kudriavzevii,4 µg/mL
same,MIC,Candida dubliniensis,0.5 µg/mL
same,MIC,Candida albicans [7],0.5 µg/mL
same,MIC,[8],1 µg/mL
same,MIC,Candida tropicalis,1 µg/mL
Cc1ccc(C(=O)c2cnc3ncccn23)cc1,MIC,Kluyveromyces marxianus [6],0.5 µg/mL
same,MIC,Pichia kudriavzevii,0.5 µg/mL
same,MIC,Candida dubliniensis,0.25 µg/mL
same,MIC,Candida albicans [7],0.12 µg/mL
same,MIC,[8],0.062 µg/mL
same,MIC,Nakaseomyces glabratus,0.062 µg/mL
same,MIC,Candida tropicalis,0.25 µg/mL
O=C(CN1CCN(c2ncccn2)CC1)c1cnc2ncccn12,pIC50,MCF7,4.83
same,pIC50,Pyruvate kinase PKM,6.35
same,pIC50,A549 [4],4.61
same,pIC50,COLO 205,4.18
O=C(O)c1ccccc1Nc1c(Cl)cccc1Cl,inhibition at 100 µM,Albumin,84.7%
Cc1c(C(=O)N2CCC2)cnn1C(=O)Nc1ccn2cc(-c3ccccc3)nc2n1,pIC50,[5],8.52
CC(=O)NC1(Cc2ccc(N)cc2)C(=O)N=C2N=CC=CN21 (stereo unspecified),pIC50,A549 [1],5.49
Nc1ccn(C[C@@H](CO)OCP(=O)(O)O)c(=O)n1 [CIDOFOVIR ANHYDROUS],CC50,[10],> 150 µM
same,pEC50,BK polyomavirus,6.62
N#Cc1ccc(C(=O)c2cnc3ncccn23)cc1,MIC,Kluyveromyces marxianus [6],0.125 µg/mL
same,MIC,Pichia kudriavzevii,0.25 µg/mL
same,MIC,Candida dubliniensis,0.062 µg/mL
same,MIC,Candida albicans [7],0.25 µg/mL
same,MIC,[8],0.031 µg/mL
same,MIC,Nakaseomyces glabratus,0.065 µg/mL
same,MIC,Candida tropicalis,0.062 µg/mL
Cc1ccc(-c2cn3cccnc3n2)cc1,inhibition at 100 µM,Albumin,82.9%
Clc1ccc(-c2cn3cccnc3n2)cc1,inhibition at 100 µM,Albumin,41.7%
CS(=O)(=O)C1=CN(Cc2ccccc2)C(=O)N2CCN=C12,CC50,[10],> 150 µM
same,pEC50,BK polyomavirus,6.18
O=C(CN1CCN(C(=O)c2ccc(Cl)cc2)CC1)c1cnc2ncccn12,pIC50,MCF7,4.93
same,pIC50,Pyruvate kinase PKM,5.73
same,pIC50,A549 [4],4.60
same,pIC50,COLO 205,4.55
O=c1[nH]cc(-c2ccc(-c3ccccc3)cc2)c2nccn12,pIC50,CCRF-CEM,5.07
same,pIC50,CEM-DNR,5.55
same,pIC50,A549 [11],4.99
same,pIC50,K562,4.82
